Measurements reported in patent US20130209386A1, “NEW USES” (EVOCUTIS PLC, priority 2010, published 2013).
≈ marks a conversion by molar mass, not a printed value. Where “and” joins values, the source holds several entries; their conditions need not be identical. Equal entries are not always repeated. Where two headings read alike, the source gives them in different places. Marks after values point to notes of the source that are not given here.

How the values were obtained:
C. striatum NCTC 764 = assay: Fixed ratio combination MIC/MBC assays; assay type: cell-based, Corynebacterium striatum
Procedure: The second test organism used was Corynebacterium striatum NCTC 764. This is a Gram-positive bacterium which is closely related to organisms (aerobic diphtheroids of the genus Corynebacterium) that cause body odour (Guillet et al, Eur J Dermatol, 2000 Jan-Feb, 10(1): 41-2). The C. striatum was cultured and maintained on Mueller-Hinton Medium (agar and broth) at pH 7.3 (±0.1); cultures were incubated aerobically at 37° C. for 18-24 hours.
(§1) (g) Fixed Ratio Combination MIC/MBC Assays
(§2) This method used a sterile 96-well microtitre plate, capable of holding about 200 μl of liquid per well. The wells contained liquid culture medium and ranges of decreasing concentrations of the relevant test compounds alone in doubling dilutions (eg 1000, 500, 250, 125 . . . μg/ml, etc. down to 0.49 μg/ml) or doubling dilutions of a combination of two compounds mixed initially at a fixed concentration ratio (based on molarity in this instance). The culture medium was as described above.
(§3) The wells were inoculated with a liquid suspension of freshly grown micro-organism and incubated under the conditions described above. After incubation, the microtitre plate was examined visually (with the aid of a light box) for cloudiness in each well, which would indicate microbial growth. The MIC value was recorded as the lowest concentration of test compounds alone or concentrations of the mixture of the two test compounds required to inhibit microbial growth, ie the liquid in the well remained clear.
(§4) The assays were conducted in triplicate and included both negative (culture medium with no micro-organisms) and positive (culture medium plus diluting solvent(s) plus micro-organism) controls.
(§5) These samples were then individually sub-cultured on antibiotic-free agar medium, under the incubation conditions described above. Following incubation they were examined visually for microbial growth.
(§6) Thus for each mixture tested, the FIC for compound A (FICA)=MIC for (A+B)/MIC for A alone. Similarly the FIC for compound B (FICB)=MIC for (A+B)/MIC for B alone. The overall FICI=FICA+FICB.
(§7) FBC & FBCI were calculated in the same manner using recorded MBC values.

[1] = test system: Propionibacterium acnes NCTC 737; assay: Minimum inhibitory concentration (MIC) assay; assay type: cell-based
Procedure: (§8) The first test organism used was Propionibacterium acnes NCTC 737. This is a propionibacterial strain and is the type strain of the genus; it is fully susceptible to antibiotics. The propionibacteria are clinically significant due to their involvement in acne. They are also opportunistic pathogens in compromised hosts. Activity observed against these micro-organisms is expected to be a good predictor of activity against acne.
(§9) The propionibacteria were cultured and maintained on Wilkins-Chalgren Anaerobe Medium (agar and broth) at pH 6.0; all cultures were incubated anaerobically at 37° C. for 72 hours.
(a) Minimum Inhibitory Concentration (MIC) Assay
This is a standard international method for quantitatively assessing the antimicrobial activity of a compound in a liquid medium. The method used a sterile 96-well microtitre plate, capable of holding about 200 μl of liquid per well. The wells contained liquid culture medium and ranges of decreasing concentrations of the relevant test compound in doubling dilutions (eg 1000, 500, 250, 125 . . . μg/ml, etc, down to 0.49 μg/ml). The culture media were as described above.
The wells were inoculated with a liquid suspension of freshly grown micro-organism and incubated under the conditions described above. After incubation, the microtitre plate was examined visually (with the aid of a light box) for cloudiness in each well, which would indicate microbial growth. The MIC value was recorded as the lowest concentration of test compound required to inhibit microbial growth, ie the lowest concentration for which the liquid in the well remained clear.
The assays included both negative (culture medium with no micro-organisms) and positive (culture medium plus diluting solvent plus micro-organism) controls.

P. acnes NCTC 737 [2] = assay: Fixed ratio combination MIC/MBC assays; assay type: cell-based, Propionibacterium acnes
Procedure: as §1, §2, §3, §4, §5, §6, §7

[3] = test system: Propionibacterium acnes NCTC 737; assay: Minimum biocidal concentration (MBC) assay; assay type: cell-based
Procedure: as §8, §9
(b) Minimum Biocidal Concentration (MBC) Assay
This assay, normally carried out after an MIC assay, determines the minimum concentration of a compound that is lethal to the micro-organism being tested.
as §5

[4] = test system: Propionibacterium acnes NCTC 737; assay: Disc diffusion assay (DDA) and synergy disc diffusion assay (SDDA); assay type: cell-based
Procedure: (c) Disc Diffusion Assay (DDA)
This is an internationally recognised standard method for qualitatively assessing the antimicrobial activity of a compound or combination of compounds.
A sterile paper disc was impregnated with a sample of the test compound(s) in a suitable solvent (or applied neat) and 30 minutes allowed for any of the solvents to evaporate (where possible). The disc was then placed on an agar plate onto which the test micro-organism had been inoculated. The plate was then incubated under the conditions described above, following which it was examined visually for signs of microbial growth. […] The diameter of this zone of “inhibition” was measured using a ProtoCOL™ automated zone sizer (Synbiosis, Cambridge, UK).
(d) Synergy Disc Diffusion Assay (SDDA)
This is a variation on the DDA method, in which two compounds are tested together for their combined antimicrobial activity.
Two test compounds A and B were placed on a single paper disc and the above described DDA procedure repeated.
The two compounds were then subjected in combination to the SDDA assay described above.
MIC/MBC experiments were performed in duplicate and (S)DDA experiments in triplicate.
The tropolone was dissolved in ethanol.

P. acnes NCTC 737 [5] = assay: Synthetic sebum time-to-kill assay; assay type: cell-based, Propionibacterium acnes; conditions: copper sulphate 97.5 mg/L, tropolone 195 mg/L; for Log10 change: T0 to T4 hours; for Log10 cfu/ml (T4 hours): after 4 hours, lowest detectable level 3.0; for Log10 cfu/ml (T0 hours): start count
Procedure: (f) Synthetic Sebum Time-to-Kill Assay This quantitative assay was designed to assess the level of kill of a P. acnes culture in a synthetic sebum (non-aqueous environment) over a defined time period (in this case 4 hours). A culture of P. acnes NCTC 737 was inoculated into a synthetic sebum (a liquid mixture of lipid components designed to simulate human sebum) containing the relevant test compound dissolved in 1-octanol. […] The plates were then incubated as described above and subsequently examined visually for growth. The numbers of viable microbial colonies on the plates were counted with the aid of a colony counter and converted to colony-forming units per ml (cfu/ml) using the appropriate dilution factor. Cell counts conducted in the absence of test compound acted as positive controls. Mixtures of tropolone and copper (II) sulphate, containing various relative proportions of the two actives, were subjected to synthetic sebum time-to-kill assays against P. acnes NCTC 737, as described above. All assays were conducted in triplicate.

[6] = C. striatum NCTC 764, compound alone
[7] = P. acnes NCTC 737, compound alone
[8] = compound alone, 12.5 μg per disc (gluconate, picolinate 25 μg; silicate 12.4 μg; chlorophyllin 200 μg)
[9] = copper salt + tropolone versus the greater single zone
[10] = copper salt combined with tropolone on one disc, 12.5 μg each (exceptions b187)

Molecule	MBC (C. striatum NCTC 764)	MIC (C. striatum NCTC 764)	MIC [1] [µg/mL]	MBC (P. acnes NCTC 737 [2]; compound alone)	MIC (P. acnes NCTC 737 [2]; compound alone)	MBC [3] [µg/mL]	MIC/MBC ratio [3]	(S)DDA with tropolone [4] [mm]	DDA zone of inhibition diameter [4] [mm]	SDDA area increase [4] [%]	SDDA increase [4] [mm]	MBC (C. striatum NCTC 764; [6])	MIC/MBC ratio [3, 7]	MIC (C. striatum NCTC 764; [6])	MIC [1, 7] [µg/mL]	MBC [3, 7] [µg/mL]	DDA zone of inhibition diameter [4, 8] [mm]	SDDA area increase [4, 9] [%]	SDDA increase [4, 9] [mm]	(S)DDA with tropolone [4, 10] [mm]	also measured
CC(=O)[O-].[Cu+] [Copper (I) acetate]	>62.8** μg/ml	>62.8** μg/ml	7.8	23.3 µg/mL	23.3 µg/mL	31.25	0.25	32.35	32.14	1.29	0.21										
O=c1cccccc1O [Tropolone, 2-hydroxy-2,4,6-cycloheptatrien-1-one]					62.5 µg/mL							62.5 µg/mL	0.06								MBC (C. striatum NCTC 764; Corynebacterium striatum, NCTC764, C. striatum NCTC 764, compound alone, read-out: MBC): > 62.5 µg/mL; Log10 change (P. acnes NCTC 737 [5]): −0.31 Log10; Log10 cfu/ml (T4 hours) (P. acnes NCTC 737 [5]): 7.8 Log10 cfu/ml; Log10 cfu/ml (T0 hours) (P. acnes NCTC 737 [5]): 8.11 Log10 cfu/ml; MIC ([1]; Cutibacterium acnes, NCTC737, P. acnes NCTC 737, compound alone, read-out: MIC): 15.6 µg/mL (≈ 128 µM); MBC (P. acnes NCTC 737 [2]; Cutibacterium acnes, NCTC737, compound alone, read-out: MBC): > 62.5 µg/mL; MIC (P. acnes NCTC 737 [2]; Cutibacterium acnes, NCTC737, compound alone, read-out: MIC): 31.2 µg/mL; MBC ([3]; Cutibacterium acnes, NCTC737, P. acnes NCTC 737, compound alone, read-out: MBC): 250 µg/mL (≈ 2050 µM); zone of inhibition at 200 µg/disc ([4]; Cutibacterium acnes, NCTC737, 200 μg tropolone and/or 12.5 μg copper sulphate per disc, read-out: (S)DDA zone of inhibition diameter): 19.1 mm; zone of inhibition at 12.5 µg/disc ([4]; Cutibacterium acnes, NCTC737, compound alone, 12.5 μg per disc (gluconate, picolinate 25 μg; silicate 12.4 μg; chlorophyllin 200 μg), read-out: DDA zone of inhibition diameter): 13.2 mm
CC(=O)[O-].CC(=O)[O-].[Cu+2] [Copper (II) acetate]	>46.5** μg/ml	>46.5** μg/ml	3.9	46 µg/mL and 34.6 µg/mL		125	0.03	30.80	25.63	44.39	5.17										
[Cu+].[I-] [Copper (I) iodide]												>97.5** μg/ml	0.25	>97.5** μg/ml	7.8	31.25	29.66	24.28	3.41	33.07	
Copper (II) salicylate	>86** μg/ml	>86** μg/ml	7.8			31.25	0.25	32.87	28.32	34.70	4.55										
[Cl][Cu][Cl] [Copper (II) chloride]												>34.4** μg/ml	0.06	>34.4** μg/ml	1.95	31.25	32.14	1.94	0.31	32.45	
O.O.O.O.O.O=S(=O)([O-])[O-].[Cu+2] [Copper sulphate, copper (II) sulphate pentahydrate]	>40.9** μg/ml	>40.9** μg/ml	15.6	>40.9** μg/ml and 60.8 μg/ml	20.4 µg/mL and 30.4 µg/mL	125	0.125														Log10 change (P. acnes NCTC 737 [5]): −1.53 Log10; Log10 cfu/ml (T4 hours) (P. acnes NCTC 737 [5]): 6.58 Log10 cfu/ml; Log10 cfu/ml (T0 hours) (P. acnes NCTC 737 [5]): 8.11 Log10 cfu/ml; (S)DDA zone of inhibition diameter [4]: 17.3 (±2.59) mm
Copper (II) gluconate												>116** μg/ml	0.5	>116** μg/ml	62.5	125	26.25	40.43	4.86	31.11	
